In patent publication US10975056B2 (GlaxoSmithKline Intellectual Property Development Limited, priority 2016, dated 2021):
Several values for one entry are separate records, joined by “and”; a condition that tells them apart may be missing. Equal values may be shown once. Where a name gives a salt, the structure may show the parent alone. Read-outs that look alike come from different tables or passages of the source.

Experiments:
DNMT1 = DNMT1 (Homo sapiens, UniProt P26358); experiment: DNMT1 biochemical activity, breaklight assay and/or SPA assay
Chain of DNMT1 (P26358 whole entry, looked up): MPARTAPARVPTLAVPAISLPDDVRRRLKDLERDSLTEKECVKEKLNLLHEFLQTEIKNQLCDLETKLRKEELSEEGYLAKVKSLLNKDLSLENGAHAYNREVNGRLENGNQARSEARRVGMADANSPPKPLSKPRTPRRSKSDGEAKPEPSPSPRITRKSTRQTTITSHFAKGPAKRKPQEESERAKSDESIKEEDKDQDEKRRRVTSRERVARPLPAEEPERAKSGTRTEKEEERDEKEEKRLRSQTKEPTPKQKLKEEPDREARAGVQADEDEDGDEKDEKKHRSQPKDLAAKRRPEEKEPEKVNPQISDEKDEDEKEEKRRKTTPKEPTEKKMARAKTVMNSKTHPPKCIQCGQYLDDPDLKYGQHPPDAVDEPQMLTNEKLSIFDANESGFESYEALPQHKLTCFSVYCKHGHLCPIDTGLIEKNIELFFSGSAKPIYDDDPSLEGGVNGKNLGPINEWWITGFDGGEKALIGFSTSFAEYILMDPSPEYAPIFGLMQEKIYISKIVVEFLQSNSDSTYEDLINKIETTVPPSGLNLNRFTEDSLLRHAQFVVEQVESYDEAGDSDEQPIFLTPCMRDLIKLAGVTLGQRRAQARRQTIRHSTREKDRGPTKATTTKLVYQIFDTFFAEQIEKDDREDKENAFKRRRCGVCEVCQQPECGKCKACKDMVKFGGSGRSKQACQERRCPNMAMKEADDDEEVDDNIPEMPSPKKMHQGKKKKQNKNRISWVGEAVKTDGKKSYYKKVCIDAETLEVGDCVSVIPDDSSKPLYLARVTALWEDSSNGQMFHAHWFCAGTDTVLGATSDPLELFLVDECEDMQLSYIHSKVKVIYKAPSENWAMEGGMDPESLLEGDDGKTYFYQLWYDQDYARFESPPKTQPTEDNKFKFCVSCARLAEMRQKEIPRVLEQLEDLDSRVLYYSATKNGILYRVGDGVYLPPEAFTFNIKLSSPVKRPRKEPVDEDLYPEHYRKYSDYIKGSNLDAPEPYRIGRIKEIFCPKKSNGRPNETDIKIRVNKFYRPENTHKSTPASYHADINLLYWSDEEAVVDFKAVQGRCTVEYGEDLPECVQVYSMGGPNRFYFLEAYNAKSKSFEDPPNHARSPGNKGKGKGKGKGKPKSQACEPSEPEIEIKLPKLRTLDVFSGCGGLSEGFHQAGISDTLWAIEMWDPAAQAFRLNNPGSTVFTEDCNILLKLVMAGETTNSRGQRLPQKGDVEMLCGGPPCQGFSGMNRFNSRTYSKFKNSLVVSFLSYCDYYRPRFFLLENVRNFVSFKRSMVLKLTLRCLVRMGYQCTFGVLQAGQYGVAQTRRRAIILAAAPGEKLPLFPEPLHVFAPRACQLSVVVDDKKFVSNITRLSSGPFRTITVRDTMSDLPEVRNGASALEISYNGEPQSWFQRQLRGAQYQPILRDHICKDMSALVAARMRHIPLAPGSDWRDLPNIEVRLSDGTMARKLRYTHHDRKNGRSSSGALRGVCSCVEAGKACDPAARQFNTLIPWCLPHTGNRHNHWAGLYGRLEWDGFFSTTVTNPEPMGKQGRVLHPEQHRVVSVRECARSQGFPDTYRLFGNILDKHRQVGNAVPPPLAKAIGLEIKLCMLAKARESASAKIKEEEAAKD

[1] = test system: erythroid progenitor cells (EPCs); experiment: Fetal hemoglobin (HbF) ELISA in day 7 erythroid progenitor cells; type: cell-based, human; conditions: Homo sapiens, Erythroid progenitor cell, HbF ELISA, day 7 EPCs, 5 days; read-out: EPC ELISA (pEC50 category) (converted);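 further: for fetal hemoglobin induction normalized to vehicle-treated cells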
Summary of the method: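 CD34+-derived EPCs, 1,000 cells/well, rhEPO 3 U/mL; Compound A 22-pt series, […]; 5 d, 37° C, 5% CO2. Freeze-thaw lysis, anti-HbF capture + HRP anti-HbF, TMB, OD450. Normalized to DMSO wells.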

[2] = binned activity in either the breaklight or the SPA assay, read-out: DNMT1 BioChemical (pIC50 category) (converted)
[3] = breaklight assay and/or SPA assay, repeated experimental runs, read-out: average pIC50 against DNMT1 (converted)
[4] = binned activity in either the breaklight or the SPA assay

`CCc1c(C#N)c(SCc2ccc3c(c2)C(OC)(OC)C(=O)N3)nc(N2CCCN(C)CC2)c1C#N` [Example 347, 2-(((3,3-Dimethoxy-2-oxoindolin-5-yl)methyl)thio)-4-ethyl-6-(4-methyl-1,4-diazepan-1-yl)pyridine-3,5-dicarbonitrile] showed an IC50 (DNMT1; [2]) of 316 to 1000 nM and an EC50 [1] of 1000 to 31600 nM.
`CCc1c(Cl)c(SC(C(N)=O)c2ccccc2)nc(N2CCCN(C)CC2)c1Cl` (stereo not drawn) [Example 165] was tested, and the IC50 (DNMT1; [2]) was 316 to 1000 nM, the IC50 (DNMT1; [3]) was 316 to 1000 nM and 631 nM and the EC50 [1] was greater than 31600 nM.
Molecule `CCc1c(C#N)c(SCc2ccc3c(c2)CCN(C(C)=O)C3)nc(N(C)C)c1C#N` [Example 92, 2-(((2-Acetyl-1,2,3,4-tetrahydroisoquinolin-6-yl)methyl)thio)-6-(dimethylamino)-4-ethylpyridine-3,5-dicarbonitrile] has an IC50 (DNMT1; [2]) of 316 to 1000 nM, an IC50 (DNMT1; [3]) of no less than 1000 nM and an EC50 [1] of 1000 to 31600 nM.
With `CCc1c(C#N)c(SC(C(N)=O)c2ccccc2)nc(N2CCOC(CN)C2)c1C#N` (stereo not drawn) [Example 562, 2-((6-(2-(aminomethyl)morpholino)-3,5-dicyano-4-ethylpyridin-2-yl)thio)-2-phenylacetamide] the “DNMT1 BioChemical (pIC50 category)” value (DNMT1; [4]) was “D (Category D: ≥6.5)”, the “average pIC50 against DNMT1” value (DNMT1; breaklight assay and/or SPA assay, repeated experimental runs) was greater than 6.5 and the IC50 (DNMT1; [3]) was 79.4 nM. It also gave an EC50 [1] of less than 316 nM.
In the case of `CCc1c(C#N)c(S[C@@H](C(N)=O)c2ccc(F)cc2F)nc(N2CC[C@H](O)C2)c1C#N` [Example 674, (R)-2-((3,5-dicyano-4-ethyl-6-((S)-3-hydroxypyrrolidin-1-yl)pyridin-2-yl)thio)-2-(2,4-difluorophenyl)acetamide], the “DNMT1 BioChemical (pIC50 category)” value (DNMT1; [4]) is reported as “D (Category D: ≥6.5)” and the EC50 [1] is reported as 1000 to 31600 nM.
`CCc1c(C#N)c(SCc2cnn(CC(N)=O)c2)nc(N(C)C)c1C#N` [Example 285, 2-(4-(((3,5-Dicyano-6-(dimethylamino)-4-ethylpyridin-2-yl)thio)methyl)-1H-pyrazol-1-yl)acetamide] was tested, and the IC50 (DNMT1; [2]) was 316 to 1000 nM and the EC50 [1] was 1000 to 31600 nM.
`N#Cc1c(SC(C(N)=O)c2ccccc2)nc(N2CCNC(CO)C2)c(C#N)c1C1CC1` (stereo not drawn) [Example 14, 2-({3,5-dicyano-4-cyclopropyl-6-[3-(hydroxymethyl)piperazin-1-yl]pyridin-2-yl}sulfanyl)-2-phenylacetamide] was tested, and the “DNMT1 BioChemical (pIC50 category)” value (DNMT1; [4]) was “D (Category D: ≥6.5)” and the EC50 [1] was 316 to 1000 nM.
`CCc1c(C#N)c(SC(C(N)=O)c2ccccc2)nc(N(C)CC(=O)N2C[C@H](CO)[C@@H](O)C2)c1C#N` (stereo partly drawn) [Example 664, 2-((3,5-dicyano-4-ethyl-6-((2-((3R,4R)-3-hydroxy-4-(hydroxymethyl)pyrrolidin-1-yl)-2-oxoethyl)(methyl)amino)pyridin-2-yl)thio)-2-phenylacetamide] was tested, and the “DNMT1 BioChemical (pIC50 category)” value (DNMT1; [4]) was “D (Category D: ≥6.5)” and the EC50 [1] was 1000 to 31600 nM.
Molecule `CCc1c(C#N)c(SC(C(N)=O)c2c(F)cccc2F)nc(N2CC[C@H](O)C2)c1C#N` (stereo partly drawn) [Example 428] has an IC50 (DNMT1; [2]) of 316 to 1000 nM and an EC50 [1] of 316 to 1000 nM.
`CCc1c(C#N)c(SC(C(N)=O)c2ccccc2)nc(N(C)CC(=O)N2C[C@H](O)[C@@H](O)C2)c1C#N` (stereo partly drawn) [Example 660, 2-((3,5-dicyano-6-((2-((3S,4S)-3,4-dihydroxypyrrolidin-1-yl)-2-oxoethyl)(methyl)amino)-4-ethylpyridin-2-yl)thio)-2-phenylacetamide] was tested, and the “DNMT1 BioChemical (pIC50 category)” value (DNMT1; [4]) was “D (Category D: ≥6.5)” and the EC50 [1] was 1000 to 31600 nM.
In the case of `CCc1c(C#N)c(S[C@@H](C(N)=O)c2ccccc2)nc(N2CC[C@@H](N)[C@H](F)C2)c1C#N` [Example 518, (R)-2-((6-((3R,4R)-4-amino-3-fluoropiperidin-1-yl)-3,5-dicyano-4-ethylpyridin-2-yl)thio)-2-phenylacetamide, Trifluoroacetic acid salt], the “DNMT1 BioChemical (pIC50 category)” value (DNMT1; [4]) is reported as “D (Category D: ≥6.5)” and the EC50 [1] is reported as less than 316 nM.
`CCc1c(C#N)c(SCc2ccc(-c3cccnc3)cc2)nc(N2CCC(N3CCCC3)CC2)c1C#N` [Example 337, 4-Ethyl-2-((4-(pyridin-3-yl)benzyl)thio)-6-(4-(pyrrolidin-1-yl)piperidin-1-yl)pyridine-3,5-dicarbonitrile] showed an IC50 (DNMT1; [2]) of 316 to 1000 nM, an IC50 (DNMT1; [3]) of 3160 nM and an EC50 [1] greater than 31600 nM.
`CCc1c(C#N)c(SC(C(N)=O)c2ccccc2)nc(N2CCN(Cc3cnco3)CC2)c1C#N` (stereo not drawn) [Example 184, 2-((3,5-Dicyano-4-ethyl-6-(4-(oxazol-5-ylmethyl)piperazin-1-yl)pyridin-2-yl)thio)-2-phenylacetamide] showed an IC50 (DNMT1; [2]) of 316 to 1000 nM and an EC50 [1] of 316 to 1000 nM.
For `COc1c(C#N)c(SCc2ccc(N(C)S(C)(=O)=O)cc2)nc(N2CCC(N)CC2)c1C#N` [Example 683, N-(4-(((6-(4-aminopiperidin-1-yl)-3,5-dicyano-4-methoxypyridin-2-yl)thio)methyl)phenyl)-N-methylmethanesulfonamide hydrochloride], the “DNMT1 BioChemical (pIC50 category)” value (DNMT1; [4]) was “D (Category D: ≥6.5)”, the IC50 (DNMT1; [3]) was 316 to 1000 nM and 316 nM and the EC50 [1] was less than 316 nM.
`CN(CC(=O)NCCN)c1nc(SC(C(N)=O)c2ccccc2)c(C#N)c(C2CC2)c1C#N` (stereo not drawn) [Example 619, 2-((6-((2-amino-2-oxo-1-phenylethyl)thio)-3,5-dicyano-4-cyclopropylpyridin-2-yl)(methyl)amino)-N-(2-aminoethyl)acetamide hydrochloride] was tested, and the “DNMT1 BioChemical (pIC50 category)” value (DNMT1; [4]) was “D (Category D: ≥6.5)” and the EC50 [1] was 1000 to 31600 nM.
`CCc1c(C#N)c(SC(C(N)=O)c2ccccc2)nc(N2CCC(NCc3ccccc3)CC2)c1C#N` (stereo not drawn) [Example 455, 2-(6-(4-(benzylamino)piperidin-1-yl)-3,5-dicyano-4-ethylpyridin-2-ylthio)-2-phenylacetamide] was tested, and the “DNMT1 BioChemical (pIC50 category)” value (DNMT1; [4]) was “D (Category D: ≥6.5)” and the EC50 [1] was less than 316 nM.
`CCc1c(C#N)c(SC(C(N)=O)c2ccccc2)nc(N(C)CC(=O)N2CCO[C@H](CO)C2)c1C#N` (stereo partly drawn) [Example 646, 2-((3,5-dicyano-4-ethyl-6-((2-((S)-2-(hydroxymethyl)morpholino)-2-oxoethyl)(methyl)amino)pyridin-2-yl)thio)-2-phenylacetamide] was tested, and the “DNMT1 BioChemical (pIC50 category)” value (DNMT1; [4]) was “D (Category D: ≥6.5)” and the EC50 [1] was less than 316 nM.
With `CCc1c(C#N)c(SCc2ccc(CNC(=O)[C@H](C)N)cc2)nc(N2CCCN(C)CC2)c1C#N` [Example 97, (S)-2-Amino-N-(4-(((3,5-dicyano-4-ethyl-6-(4-methyl-1,4-diazepan-1-yl)pyridin-2-yl)thio)methyl)benzyl)propanamide] the “DNMT1 BioChemical (pIC50 category)” value (DNMT1; [4]) was “D (Category D: ≥6.5)” and the EC50 [1] was greater than 31600 nM.
In the case of `CCc1c(C#N)c(SC(C(N)=O)c2ccccc2)nc(N2CCCN(C)CC2)c1C#N` (single isomer, unassigned; isomer 1) [Example 254, 2-((3,5-dicyano-4-ethyl-6-(4-methyl-1,4-diazepan-1-yl)pyridin-2-yl)thio)-2-phenylacetamide (Isomer 1)], the IC50 (DNMT1; [2]) is reported as less than 316 nM and the EC50 [1] is reported as 316 to 1000 nM.
In the case of `CCc1c(C#N)c(SCc2ccc(C#N)c(C)c2)nc(N2CCCN(C)CC2)c1C#N` [Example 295, 2-((4-Cyano-3-methylbenzyl)thio)-4-ethyl-6-(4-methyl-1,4-diazepan-1-yl)pyridine-3,5-dicarbonitrile], the IC50 (DNMT1; [2]) is reported as 316 to 1000 nM and the EC50 [1] is reported as greater than 31600 nM.
In the case of `CN(CCOC(N)=O)c1nc(SC(C(N)=O)c2ccccc2)c(C#N)c(C2CC2)c1C#N` (stereo not drawn) [Example 397, 2-((6-((2-Amino-2-oxo-1-phenylethyl)thio-3,5-dicyano-4-cyclopropylpyridin-2-yl)methyl)amino)ethyl carbamate], the IC50 (DNMT1; [2]) is reported as 316 to 1000 nM and the EC50 [1] is reported as 1000 to 31600 nM.
`CCc1c(C#N)c(SCc2ccc(CNS(C)(=O)=O)cc2)nc(N2CCCN(C)CC2)c1C#N` [Example 79, N-(4-(((3,5-Dicyano-4-ethyl-6-(4-methyl-1,4-diazepan-1-yl)pyridin-2-yl)thio)methyl)benzyl)methanesulfonamide] was tested, and the “DNMT1 BioChemical (pIC50 category)” value (DNMT1; [4]) was “D (Category D: ≥6.5)”, the IC50 (DNMT1; [3]) was 316 nM and the EC50 [1] was 316 to 1000 nM.
`CCc1c(C#N)c(SCc2ccc(N(C)S(C)(=O)=O)cc2)nc(N2CCC(NC3CC3)CC2)c1C#N` [Example 573, N-(4-(((3,5-dicyano-6-(4-(cyclopropylamino)piperidin-1-yl)-4-ethylpyridin-2-yl)thio)methyl)phenyl)-N-methylmethanesulfonamide] was tested, and the “DNMT1 BioChemical (pIC50 category)” value (DNMT1; [4]) was “D (Category D: ≥6.5)” and the EC50 [1] was less than 316 nM.
`CCc1c(C#N)c(SCc2cnn(CC(O)CO)c2)nc(N2CCC(N)CC2)c1C#N` (stereo not drawn) [Example 380, 2-(4-Aminopiperidin-1-yl)-6-(((1-(2,3-dihydroxypropyl)-1H-pyrazol-4-yl)methyl)thio)-4-ethylpyridine-3,5-dicarbonitrile, Hydrochloride] gave an IC50 (DNMT1; [2]) of 316 to 1000 nM and an EC50 [1] of 1000 to 31600 nM.
`CCc1c(C#N)c(SC(C(N)=O)c2ccccc2)nc(N2CCC(C#N)CC2)c1C#N` (stereo not drawn) [Example 319, 2-((3,5-Dicyano-6-(4-cyanopiperidin-1-yl)-4-ethylpyridin-2-yl)thio)-2-phenylacetamide] was tested, and the IC50 (DNMT1; [2]) was 1000 to 31600 nM and the EC50 [1] was 316 to 1000 nM.
With `CCc1c(C#N)c(SC(C(N)=O)c2ccccc2)nc(N2CCC(N(C)C)CC2)c1C#N` (stereo not drawn) [Example 548, 2-((3,5-dicyano-6-(4-(dimethylamino)piperidin-1-yl)-4-ethylpyridin-2-yl)thio)-2-phenylacetamide] the “DNMT1 BioChemical (pIC50 category)” value (DNMT1; [4]) was “D (Category D: ≥6.5)” and the EC50 [1] was less than 316 nM.
With `CCc1c(C#N)c(SC(C(N)=O)c2ccccc2)nc(N2CC[C@@H](OP(=O)(O)O)C2)c1C#N` (stereo partly drawn) [Example 416, (3R)-1-(6-((2-amino-2-oxo-1-phenylethyl)thio)-3,5-dicyano-4-ethylpyridin-2-yl)pyrrolidin-3-yl dihydrogen phosphate] the IC50 (DNMT1; [2]) was 1000 to 31600 nM and the EC50 [1] was 1000 to 31600 nM.
Molecule `CCc1c(C#N)c(SCc2ccc3c(c2)OCO3)nc(N2CCCN(C)CC2)c1C#N` [Example 346, 2-((Benzo[1,3]dioxol-5-ylmethyl)thio)-4-ethyl-6-(4-methyl-1,4-diazepan-1-yl)pyridine-3,5-dicarbonitrile] has an IC50 (DNMT1; [2]) of 316 to 1000 nM and an EC50 [1] greater than 31600 nM.
